Where two headings read alike, the source gives them in different places.
Columns and labels:
[1] = tested on: dopamine cells in the VTA; assay: In vivo assessment of dopamine neuron firing in rat ventral tegmental area
Experimental: In vivo assessment of dopamine neuron firing in rat ventral tegmental area was conducted as described by Schilstrom et al. (Neuroscience 125:957-64, 2004). Briefly, male Sprague Dawley rats (250-300 g) were anesthetized with chloral hydrate (400 mg/kg i.p.) and mounted in a stereotactic frame. Anesthesia was maintained throughout the experiment with periodical injections of chloral hydrate and body temperature was kept at 37° C. with a rectal thermometer connected to an electrical heating pad. Recording electrodes were pulled in a Narishige vertical puller from borosilicate glass capillaries with outer and inner diameters of 1.50 and 1.17 mm, respectively, and filled with 2% Pontamine Sky Blue in 2 M NaCl. […] The rat was killed with an overdose of anesthetic, and the brain was removed and placed in 25% sucrose 10% paraformaldehyde solution. Sections of the VTA were cut ([…]) and stained with Neutral Red and the recording sites were verified by light microscopy.

[2] = tested on: NMDA-induced currents in pyramidal cells of the medial prefrontal cortex; assay: Facilitation of NMDA-induced currents in pyramidal cells of the medial prefrontal cortex in vitro (brain slices, voltage-clamp); assay type: cell-based, rat
[3] = tested on: mesocorticolimbic dopaminergic neurons in the VTA; conditions: cited from earlier work; for firing rate of mesocorticolimbic dopaminergic neurons in the VTA: Prisco and Eposito 1995, Di Masico et al 1998

CN(C)CCCC1(c2ccc(F)cc2)OCc2cc(C#N)ccc21 (racemic) [citalopram]
Emax ([1]; Rattus norvegicus, Neuron, FIG. 2, read-out: maximal response, burst difference): ~10%

Cc1nc2n(c(=O)c1CCN1CCC(c3noc4cc(F)ccc34)CC1)CCCC2 [risperidone]
effect on NMDA-induced currents in pyramidal cells of the prefrontal cortex ([2]; bath application, holding potential −60 mV, FIG. 3): increase NMDA-induced currents

CCOc1ccccc1OC(c1ccccc1)C1CNCCO1 (stereo not shown) [reboxetine]
effect on NMDA-induced currents in pyramidal cells of the prefrontal cortex [2]: increases NMDA-induced currents
excitability and burst firing of dopaminergic neurons in the VTA ([3]; Linner et al, 2001): enhances the excitability of dopaminergic neurons in the VTA with a preferential activation of their burst firing mode

CN(C)CCC[C@]1(c2ccc(F)cc2)OCc2cc(C#N)ccc21 [R-citalopram]
effect on the escitalopram-induced increase of burst firing ([1]; 320 μg/kg with escitalopram 320 μg/kg, FIG. 2): significantly inhibits the effect of escitalopram
effect on firing rate of dopamine cells in the VTA ([1]; given alone, dose not stated, FIG. 1): unaffected
effect on burst firing of dopaminergic cells in the VTA ([1]; given alone, FIG. 2): no effect on burst firing
effect on the escitalopram-induced increase of firing rate ([1]; pre-treatment with 320 μg/kg before escitalopram 320 μg/kg, FIG. 1): blocked

CN[C@H]1CC[C@@H](c2ccc(Cl)c(Cl)c2)c2ccccc21 [sertraline]
firing rate of mesocorticolimbic dopaminergic neurons in the VTA [3]: slight inhibition

Fc1ccc([C@@H]2CCNC[C@H]2COc2ccc3c(c2)OCO3)cc1 [paroxetine]
firing rate of mesocorticolimbic dopaminergic neurons in the VTA [3]: slight inhibition

CNCCC(Oc1ccc(C(F)(F)F)cc1)c1ccccc1 (stereo not shown) [fluoxetine]
firing rate of mesocorticolimbic dopaminergic neurons in the VTA [3]: slight inhibition

CN(C)CCC[C@@]1(c2ccc(F)cc2)OCc2cc(C#N)ccc21 [escitalopram, (S)-1-[3-(dimethylamino)propyl]-1-(4-fluorophenyl)-1,3-dihydro-5-isobenzofurancarbonitrile]
effect on firing rate of dopamine cells in the VTA ([1]; 320 μg/kg, FIG. 1): elevates firing rate statistically significant
effect on burst firing of dopaminergic cells in the VTA ([1]; doses equal to and above 160 μg/kg, FIG. 2): increases burst firing statistically significant dose-dependently
effect on firing rate of dopamine cells in the VTA ([1]; higher dose 640 μg/kg, FIG. 1): appears to be maintained
burst difference ([1]; highest dose tested 640 μg/kg, FIG. 2): about 20%

COCCCC/C(=N\OCCN)c1ccc(C(F)(F)F)cc1 [fluvoxamine]
firing rate of mesocorticolimbic dopaminergic neurons in the VTA [3]: slight inhibition

From patent US20070259952A1 (H. LUNDBECK A/S, priority 2006, published 2007)
